Experimental data published in PMC8550792, “Evolution of kinase polypharmacology across HSP90 drug discovery” (Cell Chemical Biology, 2021).

Key:
Assay in all cases: biochemical
Type in all cases: biochemical
382 unique human kinases [1] = molecular target: T1, 382 unique human kinases (Homo sapiens, UniProt Q13470); conditions: TNK1, 10 uM; for remaining activity at 10 µM: read-out: % Enzyme Activity (relative to DMSO controls)
T1 construct: purchased Reaction Biology (HotSpot contract assay)
T1 sequence (Q13470 1-666): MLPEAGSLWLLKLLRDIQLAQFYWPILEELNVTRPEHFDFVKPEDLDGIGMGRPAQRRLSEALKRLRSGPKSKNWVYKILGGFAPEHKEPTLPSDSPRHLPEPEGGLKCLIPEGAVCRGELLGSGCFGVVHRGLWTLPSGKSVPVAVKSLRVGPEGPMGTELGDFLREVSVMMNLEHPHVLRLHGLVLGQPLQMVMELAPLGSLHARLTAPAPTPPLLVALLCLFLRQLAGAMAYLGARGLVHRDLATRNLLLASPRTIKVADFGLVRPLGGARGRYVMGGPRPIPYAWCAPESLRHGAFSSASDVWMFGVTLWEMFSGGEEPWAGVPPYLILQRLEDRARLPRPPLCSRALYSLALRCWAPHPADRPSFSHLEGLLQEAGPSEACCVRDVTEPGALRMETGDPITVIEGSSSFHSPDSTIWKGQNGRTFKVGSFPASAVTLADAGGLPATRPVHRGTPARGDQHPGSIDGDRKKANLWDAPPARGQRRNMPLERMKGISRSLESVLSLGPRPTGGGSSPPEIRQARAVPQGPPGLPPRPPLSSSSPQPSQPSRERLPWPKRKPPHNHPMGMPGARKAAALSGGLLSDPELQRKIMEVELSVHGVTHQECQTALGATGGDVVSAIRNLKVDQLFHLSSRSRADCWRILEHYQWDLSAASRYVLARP

382 unique human kinases [2] = molecular target: T2, 382 unique human kinases (Homo sapiens, UniProt Q9H422); conditions: HIPK3, compound at 10 uM, duplicate values; for remaining activity at 10 µM: read-out: % Enzyme Activity (relative to DMSO controls)
T2 construct: purchased Reaction Biology (HotSpot contract assay)
T2 sequence (Q9H422 whole entry): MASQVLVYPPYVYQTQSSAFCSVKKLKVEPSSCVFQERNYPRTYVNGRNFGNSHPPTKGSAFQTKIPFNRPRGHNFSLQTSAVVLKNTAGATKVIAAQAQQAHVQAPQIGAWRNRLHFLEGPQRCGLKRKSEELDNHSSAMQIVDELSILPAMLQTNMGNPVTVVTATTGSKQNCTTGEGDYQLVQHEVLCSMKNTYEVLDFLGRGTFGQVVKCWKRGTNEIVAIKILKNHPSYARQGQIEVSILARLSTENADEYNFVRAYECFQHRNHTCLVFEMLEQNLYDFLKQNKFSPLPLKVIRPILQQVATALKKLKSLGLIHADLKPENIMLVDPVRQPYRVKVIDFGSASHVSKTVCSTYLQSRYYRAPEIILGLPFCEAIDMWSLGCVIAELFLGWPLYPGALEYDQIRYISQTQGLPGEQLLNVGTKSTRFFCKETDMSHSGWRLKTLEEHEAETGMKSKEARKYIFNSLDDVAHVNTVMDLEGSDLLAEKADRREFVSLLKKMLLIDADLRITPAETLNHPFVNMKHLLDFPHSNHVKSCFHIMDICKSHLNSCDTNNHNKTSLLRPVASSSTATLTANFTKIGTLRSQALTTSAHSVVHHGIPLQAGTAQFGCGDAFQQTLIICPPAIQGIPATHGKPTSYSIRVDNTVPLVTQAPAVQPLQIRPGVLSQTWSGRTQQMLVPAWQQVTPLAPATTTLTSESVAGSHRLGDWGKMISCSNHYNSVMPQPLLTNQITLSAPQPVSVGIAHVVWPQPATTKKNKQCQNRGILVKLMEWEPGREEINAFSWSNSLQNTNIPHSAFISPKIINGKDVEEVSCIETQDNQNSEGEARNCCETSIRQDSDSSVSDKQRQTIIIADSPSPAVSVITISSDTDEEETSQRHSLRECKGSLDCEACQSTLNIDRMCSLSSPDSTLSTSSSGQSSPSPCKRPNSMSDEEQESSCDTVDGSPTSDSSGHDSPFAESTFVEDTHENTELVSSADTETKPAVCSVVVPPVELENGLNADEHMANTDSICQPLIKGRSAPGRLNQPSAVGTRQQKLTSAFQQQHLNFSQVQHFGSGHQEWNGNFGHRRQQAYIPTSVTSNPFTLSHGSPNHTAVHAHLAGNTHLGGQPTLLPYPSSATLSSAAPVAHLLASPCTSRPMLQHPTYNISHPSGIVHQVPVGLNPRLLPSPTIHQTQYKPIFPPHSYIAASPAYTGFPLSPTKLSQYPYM

382 unique human kinases [3] = molecular target: T3, 382 unique human kinases (Homo sapiens, UniProt Q15569); conditions: TESK1, compound at 10 uM, duplicate values; for remaining activity at 10 µM: read-out: % Enzyme Activity (relative to DMSO controls)
T3 construct: purchased Reaction Biology (HotSpot contract assay)

382 unique human kinases [4] = molecular target: T4, 382 unique human kinases (Homo sapiens, UniProt Q04771, Q207D); conditions: ALK2 (Q207D), compound at 10 uM, duplicate values; for remaining activity at 10 µM: read-out: % Enzyme Activity (relative to DMSO controls)
T4 construct: purchased Reaction Biology (HotSpot contract assay)
T4 sequence (Q04771 21-509 Q207D): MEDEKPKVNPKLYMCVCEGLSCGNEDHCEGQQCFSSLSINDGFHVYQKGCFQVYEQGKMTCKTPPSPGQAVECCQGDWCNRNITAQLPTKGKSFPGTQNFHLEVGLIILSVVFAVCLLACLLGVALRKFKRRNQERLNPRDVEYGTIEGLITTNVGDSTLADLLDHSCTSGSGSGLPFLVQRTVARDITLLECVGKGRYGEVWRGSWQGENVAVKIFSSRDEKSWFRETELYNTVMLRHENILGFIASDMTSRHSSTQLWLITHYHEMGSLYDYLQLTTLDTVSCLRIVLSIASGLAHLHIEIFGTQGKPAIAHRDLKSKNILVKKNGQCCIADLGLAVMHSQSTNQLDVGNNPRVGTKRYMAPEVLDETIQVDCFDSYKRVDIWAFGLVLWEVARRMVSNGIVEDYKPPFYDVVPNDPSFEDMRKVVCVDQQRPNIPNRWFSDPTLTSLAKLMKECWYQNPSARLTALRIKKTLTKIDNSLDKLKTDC

382 unique human kinases [5] = molecular target: T5, 382 unique human kinases (Homo sapiens, UniProt P08581, T1173I); conditions: c-MET (T1173I), compound at 10 uM, duplicate values; for remaining activity at 10 µM: read-out: % Enzyme Activity (relative to DMSO controls)
T5 construct: purchased Reaction Biology (HotSpot contract assay)

382 unique human kinases [6] = molecular target: T6, 382 unique human kinases (Homo sapiens, UniProt P08922, G2032R); conditions: ROS1 (G2032R), 10 uM; for remaining activity at 10 µM: read-out: % Enzyme Activity (relative to DMSO controls)
T6 construct: purchased Reaction Biology (HotSpot contract assay)
T6 sequence (P08922 28-2347 G2032R): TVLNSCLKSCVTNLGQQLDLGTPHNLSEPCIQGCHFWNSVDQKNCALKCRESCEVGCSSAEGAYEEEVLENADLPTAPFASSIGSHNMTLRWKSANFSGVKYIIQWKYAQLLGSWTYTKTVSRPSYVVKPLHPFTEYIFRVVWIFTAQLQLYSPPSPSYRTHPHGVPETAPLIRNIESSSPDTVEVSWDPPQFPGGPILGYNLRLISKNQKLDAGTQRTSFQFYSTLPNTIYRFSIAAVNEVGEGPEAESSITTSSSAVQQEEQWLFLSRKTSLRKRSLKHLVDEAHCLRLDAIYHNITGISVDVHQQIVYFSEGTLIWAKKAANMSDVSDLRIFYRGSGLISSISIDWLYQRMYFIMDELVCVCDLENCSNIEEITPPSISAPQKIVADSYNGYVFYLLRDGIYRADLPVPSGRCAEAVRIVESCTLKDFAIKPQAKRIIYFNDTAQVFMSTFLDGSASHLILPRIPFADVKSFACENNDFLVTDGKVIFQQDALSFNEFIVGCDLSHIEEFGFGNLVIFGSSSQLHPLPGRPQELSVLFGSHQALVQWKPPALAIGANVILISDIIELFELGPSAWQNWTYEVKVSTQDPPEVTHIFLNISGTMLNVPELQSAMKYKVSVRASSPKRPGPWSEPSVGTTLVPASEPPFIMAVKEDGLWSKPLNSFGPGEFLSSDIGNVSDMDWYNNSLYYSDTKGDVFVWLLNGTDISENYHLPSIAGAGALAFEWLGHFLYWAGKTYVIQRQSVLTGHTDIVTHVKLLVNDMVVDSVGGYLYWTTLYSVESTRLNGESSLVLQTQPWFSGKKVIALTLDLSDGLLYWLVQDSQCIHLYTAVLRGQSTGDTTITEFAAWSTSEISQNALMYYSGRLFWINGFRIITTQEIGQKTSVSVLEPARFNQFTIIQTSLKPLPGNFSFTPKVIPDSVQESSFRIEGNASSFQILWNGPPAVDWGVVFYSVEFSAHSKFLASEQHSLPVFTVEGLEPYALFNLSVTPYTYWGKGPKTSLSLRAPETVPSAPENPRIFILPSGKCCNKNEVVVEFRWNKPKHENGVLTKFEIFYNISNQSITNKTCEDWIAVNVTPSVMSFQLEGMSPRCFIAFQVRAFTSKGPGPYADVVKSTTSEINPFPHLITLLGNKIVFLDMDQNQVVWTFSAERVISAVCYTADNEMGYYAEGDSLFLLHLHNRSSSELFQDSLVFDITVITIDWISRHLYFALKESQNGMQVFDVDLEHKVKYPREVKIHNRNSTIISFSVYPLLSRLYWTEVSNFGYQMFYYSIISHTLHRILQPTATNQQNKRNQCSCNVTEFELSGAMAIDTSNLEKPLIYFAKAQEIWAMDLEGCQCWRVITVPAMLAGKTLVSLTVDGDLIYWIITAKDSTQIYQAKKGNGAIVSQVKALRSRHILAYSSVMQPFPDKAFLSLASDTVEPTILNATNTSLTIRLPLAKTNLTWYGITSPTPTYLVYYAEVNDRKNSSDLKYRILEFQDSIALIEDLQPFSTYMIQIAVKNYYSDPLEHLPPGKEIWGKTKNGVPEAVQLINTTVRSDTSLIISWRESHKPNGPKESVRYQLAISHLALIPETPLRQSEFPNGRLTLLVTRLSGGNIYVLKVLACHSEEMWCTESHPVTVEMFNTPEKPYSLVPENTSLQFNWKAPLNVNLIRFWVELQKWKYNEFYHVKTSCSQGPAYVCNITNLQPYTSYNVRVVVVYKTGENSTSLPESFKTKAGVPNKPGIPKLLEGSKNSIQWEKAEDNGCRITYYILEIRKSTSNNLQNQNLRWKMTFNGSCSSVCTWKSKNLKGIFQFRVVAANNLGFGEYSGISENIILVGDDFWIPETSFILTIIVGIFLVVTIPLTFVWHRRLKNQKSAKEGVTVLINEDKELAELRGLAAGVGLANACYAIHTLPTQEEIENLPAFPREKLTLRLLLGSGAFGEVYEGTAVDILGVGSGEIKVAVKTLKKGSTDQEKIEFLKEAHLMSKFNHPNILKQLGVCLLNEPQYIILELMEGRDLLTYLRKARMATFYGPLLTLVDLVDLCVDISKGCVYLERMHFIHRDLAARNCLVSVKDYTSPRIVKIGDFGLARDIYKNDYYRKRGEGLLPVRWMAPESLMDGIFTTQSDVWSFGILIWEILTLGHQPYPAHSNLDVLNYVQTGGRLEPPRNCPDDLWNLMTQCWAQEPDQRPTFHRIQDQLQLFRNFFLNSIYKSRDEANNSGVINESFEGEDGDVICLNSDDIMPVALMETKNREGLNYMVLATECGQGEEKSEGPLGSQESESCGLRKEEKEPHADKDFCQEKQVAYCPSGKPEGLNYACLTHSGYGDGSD

382 unique human kinases [7] = molecular target: T7, 382 unique human kinases (Homo sapiens, UniProt Q96KB5); conditions: PBK/TOPK, 10 uM; for remaining activity at 10 µM: read-out: % Enzyme Activity (relative to DMSO controls)
T7 construct: purchased Reaction Biology (HotSpot contract assay)
T7 sequence (Q96KB5 1-322): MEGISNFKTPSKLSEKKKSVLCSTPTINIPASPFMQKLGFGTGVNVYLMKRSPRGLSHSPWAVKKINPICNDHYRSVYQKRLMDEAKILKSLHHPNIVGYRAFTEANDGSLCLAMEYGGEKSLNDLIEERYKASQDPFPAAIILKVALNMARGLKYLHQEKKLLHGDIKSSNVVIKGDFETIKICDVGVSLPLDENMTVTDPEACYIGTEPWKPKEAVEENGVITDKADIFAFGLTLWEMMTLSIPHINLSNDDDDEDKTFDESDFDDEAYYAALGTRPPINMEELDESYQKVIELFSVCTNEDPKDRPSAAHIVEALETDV

382 unique human kinases [8] = molecular target: T8, 382 unique human kinases (Homo sapiens, UniProt P10721, A829P); conditions: c-Kit (A829P), [ATP] 50 µM, compound 10 uM; for remaining activity at 10 µM: read-out: % Enzyme Activity (relative to DMSO controls)
T8 construct: purchased Reaction Biology (HotSpot contract assay)
T8 sequence (P10721 26-976 A829P): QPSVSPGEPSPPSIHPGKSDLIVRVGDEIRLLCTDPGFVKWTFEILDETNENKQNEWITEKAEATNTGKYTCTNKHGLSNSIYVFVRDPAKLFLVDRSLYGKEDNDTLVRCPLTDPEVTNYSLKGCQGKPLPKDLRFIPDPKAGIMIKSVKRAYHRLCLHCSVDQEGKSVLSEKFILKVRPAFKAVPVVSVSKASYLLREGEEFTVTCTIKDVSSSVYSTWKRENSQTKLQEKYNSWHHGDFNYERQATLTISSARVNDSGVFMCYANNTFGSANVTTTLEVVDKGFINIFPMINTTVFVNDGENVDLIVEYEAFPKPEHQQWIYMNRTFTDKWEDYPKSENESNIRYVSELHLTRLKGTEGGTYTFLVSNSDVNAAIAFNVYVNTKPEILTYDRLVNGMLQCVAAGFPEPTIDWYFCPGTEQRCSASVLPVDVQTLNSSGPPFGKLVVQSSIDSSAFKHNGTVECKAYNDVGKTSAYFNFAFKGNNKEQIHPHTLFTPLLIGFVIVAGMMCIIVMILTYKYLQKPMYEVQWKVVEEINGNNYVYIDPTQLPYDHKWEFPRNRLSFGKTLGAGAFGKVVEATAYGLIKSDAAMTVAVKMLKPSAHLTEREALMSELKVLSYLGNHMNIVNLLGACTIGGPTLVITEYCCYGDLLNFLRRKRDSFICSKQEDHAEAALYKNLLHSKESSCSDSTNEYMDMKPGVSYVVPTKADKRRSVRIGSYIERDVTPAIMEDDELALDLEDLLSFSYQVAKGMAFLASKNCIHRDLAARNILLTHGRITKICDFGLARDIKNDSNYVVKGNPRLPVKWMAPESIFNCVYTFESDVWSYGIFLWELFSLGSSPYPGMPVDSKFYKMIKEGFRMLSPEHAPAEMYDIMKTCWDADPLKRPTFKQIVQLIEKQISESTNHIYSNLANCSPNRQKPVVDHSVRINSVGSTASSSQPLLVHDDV

382 unique human kinases [9] = molecular target: T9, 382 unique human kinases (Homo sapiens, UniProt P10721, V559D/V654A); conditions: c-Kit (V559D/V654A), 10 uM; for remaining activity at 10 µM: read-out: % Enzyme Activity (relative to DMSO controls)
T9 construct: purchased Reaction Biology (HotSpot contract assay)
T9 sequence (P10721 26-976 V559D/V654A): as the sequence (P10721 26-976 A829P) above, with V534D, V629A, P804A counted along it

382 unique human kinases [10] = molecular target: T10, 382 unique human kinases (Homo sapiens, UniProt P27361); conditions: ERK1, 10 uM; for remaining activity at 10 µM: read-out: % Enzyme Activity (relative to DMSO controls)
T10 construct: purchased Reaction Biology (HotSpot contract assay)

382 unique human kinases [11] = molecular target: T11, 382 unique human kinases (Homo sapiens, UniProt P22455, V550E); conditions: FGFR4 (V550E), 10 uM; for remaining activity at 10 µM: read-out: % Enzyme Activity (relative to DMSO controls)
T11 construct: purchased Reaction Biology (HotSpot contract assay)

382 unique human kinases [12] = molecular target: T12, 382 unique human kinases (Homo sapiens, UniProt Q9P289); conditions: MST4, 10 uM; for remaining activity at 10 µM: read-out: % Enzyme Activity (relative to DMSO controls)
T12 construct: purchased Reaction Biology (HotSpot contract assay)
T12 sequence (Q9P289 whole entry): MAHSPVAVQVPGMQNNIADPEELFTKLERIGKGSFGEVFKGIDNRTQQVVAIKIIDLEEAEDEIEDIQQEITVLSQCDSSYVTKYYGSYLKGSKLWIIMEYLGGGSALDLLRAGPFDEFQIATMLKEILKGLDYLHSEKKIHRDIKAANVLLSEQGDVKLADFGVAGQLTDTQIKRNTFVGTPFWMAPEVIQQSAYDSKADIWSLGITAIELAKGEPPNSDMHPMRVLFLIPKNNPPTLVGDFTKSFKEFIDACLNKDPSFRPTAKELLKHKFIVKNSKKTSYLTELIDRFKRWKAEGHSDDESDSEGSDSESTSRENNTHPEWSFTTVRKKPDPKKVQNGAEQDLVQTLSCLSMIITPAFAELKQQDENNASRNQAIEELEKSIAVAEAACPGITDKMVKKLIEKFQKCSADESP

382 unique human kinases [13] = molecular target: T13, 382 unique human kinases (Homo sapiens, UniProt Q9HC98); conditions: NEK6, 10 uM; for remaining activity at 10 µM: read-out: % Enzyme Activity (relative to DMSO controls)
T13 construct: purchased Reaction Biology (HotSpot contract assay)

SMILES	remaining activity at 10 µM (382 unique human kinases [1])	remaining activity at 10 µM (382 unique human kinases [2])	remaining activity at 10 µM (382 unique human kinases [3])	remaining activity at 10 µM (382 unique human kinases [4])	remaining activity at 10 µM (382 unique human kinases [5])	remaining activity at 10 µM (382 unique human kinases [6])	remaining activity at 10 µM (382 unique human kinases [7])	remaining activity at 10 µM (382 unique human kinases [8])	remaining activity at 10 µM (382 unique human kinases [9])	remaining activity at 10 µM (382 unique human kinases [10])	remaining activity at 10 µM (382 unique human kinases [11])	remaining activity at 10 µM (382 unique human kinases [12])	remaining activity at 10 µM (382 unique human kinases [13])	further results
CC(C)c1cc(-c2n[nH]c(=O)n2-c2ccc3c(ccn3C)c2)c(O)cc1O [Ganetespib (STA9090)]	65.8%	111%	101%	154%	102%	66.8%	–	–	–	–	–	–	–	–
CC(C)c1cc(-c2n[nH]c(=O)n2-c2ccc3c(ccn3C)c2)c(O)cc1O [Ganetespib]	–	–	–	–	–	–	93.8%	49.5%	91.1%	101%	96.9%	93.8%	107%	–
CCNC(=O)c1noc(-c2cc(C(C)C)c(O)cc2O)c1-c1ccc(CN2CCOCC2)cc1 [Luminespib (AUY-922)]	97.5%	108%	104%	106%	118%	109%	–	–	–	–	–	–	–	% Enzyme Activity (relative to DMSO controls) (382 unique human kinases [1]): 96.12%; % Enzyme Activity (relative to DMSO controls) (382 unique human kinases [2]): 106.96%; % Enzyme Activity (relative to DMSO controls) (382 unique human kinases [3]): 104.01%; % Enzyme Activity (relative to DMSO controls) (382 unique human kinases [4]): 101.59%; % Enzyme Activity (relative to DMSO controls) (382 unique human kinases [5]): 114.35%; % Enzyme Activity (relative to DMSO controls) (382 unique human kinases [6]): 106.59%
CCNC(=O)c1noc(-c2cc(C(C)C)c(O)cc2O)c1-c1ccc(CN2CCOCC2)cc1 [Luminespib]	–	–	–	–	–	–	98.3%	85.3%	103%	96.1%	101%	95.1%	95.4%	% Enzyme Activity (relative to DMSO controls) (382 unique human kinases [7]): 96.61%; % Enzyme Activity (relative to DMSO controls) (382 unique human kinases [8]): 84.14%; % Enzyme Activity (relative to DMSO controls) (382 unique human kinases [9]): 102.17%; % Enzyme Activity (relative to DMSO controls) (382 unique human kinases [10]): 95.87%; % Enzyme Activity (relative to DMSO controls) (382 unique human kinases [11]): 100.42%; % Enzyme Activity (relative to DMSO controls) (382 unique human kinases [12]): 93.01%; % Enzyme Activity (relative to DMSO controls) (382 unique human kinases [13]): 94.17%
